# According to PMC2656996, “Functional cell permeable motifs within medically relevant proteins” (Journal of Biotechnology, 2007):
# Non-standard residues stand in square brackets, D forms with d. Residues, ends and D or L forms follow the SMILES beside them. N(NBD)Gly = O=C(O)CNc1ccc([N+](=O)[O-])c2nonc12
# Assays:
# HeLa cells = assay: Internalisation of NBD-labelled peptides, flow cytometry with dithionite quench; format: cell-based, human; conditions: NBD-labelled peptide 10, 40 and 160 μM, 2 h at 37 °C, DMEM 10% FCS, FACS geometric mean fluorescence, dithionite-only background subtracted, average of three independent experiments
# Method: (§1) HeLa or RAW 264.7 cells were cultured at 37 °C, 10% CO2, in Dulbecco's modified Eagle's medium (DMEM) (Invitrogen), containing 10% foetal calf serum (FCS, Harlan), 100 U/ml penicillin and 100 μg/ml streptomycin. Quantification of internalisation of NBD-labelled peptides was carried out according to the procedure described by [Drin et al. (2001)]. Briefly, cells were seeded in six-well plates (5 × 10^5 cells/well) and treated with 0–160 μM of peptide for 2 h at 37 °C. Cells were washed twice in PBS, harvested using a solution of Versene (1:500) (Invitrogen) and re-suspended in 0.5 ml (final volume) of ice-cold PBS. Cells were analysed by flow cytometry using a Becton Dickinson FACS Scan instrument and the geometric mean of fluorescence intensity was considered to represent the amount of cell-associated peptide. Following flow cytometry, 5 μl of freshly prepared dithionite stock solution (1 M Na2S2O4 in 1 M Tris–HCl (pH 10)) was added to cells maintained at 4 °C for 5 min and analysed again with flow cytometry to measure residual fluorescence. Fluorescence from cells treated with dithionite only was subtracted from the fluorescence of cell-associated or internalised peptides to infer background values.
# RAW 264.7 cells [1] = assay: as above; format: cell-based, murine; conditions: increasing concentrations of NBD-labelled peptide, 2 h at 37 °C, DMEM 10% FCS, FACS, average of three independent experiments
# Method: as §1
# RAW 264.7 cells [2] = assay: Cell viability, CellTiter-Glo Luminescent Assay; format: cell-based, murine; conditions: RAW 264.7, 10, 40 and 160 μM peptide, incubation 2, 4, 8 and 18 h
# From the text: CellTiter-Glo Luminescent Assay (Promega) was utilised to determine viability of RAW 264.7 cells following treatment with peptides, according to the manufacturer's instructions.
"Internalised peptide, mean cell fluorescence after sodium dithionite quencher (HeLa cells)","Internalised peptide, mean cell fluorescence after sodium dithionite quencher (RAW 264.7 cells [1])",SMILES,Cellular viability (RAW 264.7 cells [2])
substantially less fluorescent,substantially less fluorescent,CSCC[C@H](NC(=O)[C@H](CCCCN)NC(=O)CNc1ccc([N+](=O)[O-])c2nonc12)C(=O)N[C@@H](C)C(=O)N[C@@H](CC(=O)O)C(=O)N[C@@H](Cc1c[nH]c2ccccc12)C(=O)N[C@@H](Cc1ccccc1)C(=O)N[C@@H](CCCNC(=N)N)C(=O)N[C@@H](CCC(N)=O)C(=O)N[C@H](C(=O)N[C@@H](CC(C)C)C(=O)N[C@@H](CC(C)C)C(=O)N[C@@H](C)C(=O)N[C@@H](C)C(=O)N1CCC[C@H]1C(=O)N[C@@H](C)C(=O)N[C@@H](C)C(=O)N[C@@H](C)C(=O)N1CCC[C@H]1C(=O)N[C@@H](CC(N)=O)C(=O)N[C@@H](CO)C(=O)N1CCC[C@H]1C(=O)N[C@@H](CCC(=O)O)C(=O)N[C@@H](CO)C(=O)N[C@H](C(N)=O)[C@@H](C)O)[C@@H](C)O [NBD-TIRAP^Ala] (H-[N(NBD)Gly]KMADWFRQTLLAAPAAAPNSPEST-NH2),–
very little fluorescence,–,"C[C@H](NC(=O)[C@H](C)NC(=O)[C@H](CCC(N)=O)NC(=O)[C@H](C)NC(=O)[C@H](C)NC(=O)[C@H](CCCCN)NC(=O)[C@H](CCCCN)NC(=O)[C@H](CCCNC(=N)N)NC(=O)CNc1ccc([N+](=O)[O-])c2nonc12)C(=O)N[C@@H](C)C(=O)N1CCC[C@H]1C(=O)N1CCC[C@H]1C(=O)N[C@@H](CCC(N)=O)C(N)=O [TAT^Ala, reference compound] (H-[N(NBD)Gly]RKKAAQAAAPPQ-NH2)",–
–,–,CC[C@H](C)[C@H](NC(=O)[C@H](C)NC(=O)CNC(=O)CNC(=O)[C@@H]1CCCN1C(=O)[C@@H](NC(=O)[C@H](C)NC(=O)[C@H](CC(=O)O)NC(=O)[C@H](CCCNC(=N)N)NC(=O)[C@H](CC(C)C)NC(=O)[C@H](CCC(N)=O)NC(=O)[C@H](CC(C)C)NC(=O)[C@@H](NC(=O)[C@H](CO)NC(=O)[C@H](CCC(=O)O)NC(=O)[C@@H]1CCCN1C(=O)[C@H](CO)NC(=O)[C@H](CC(N)=O)NC(=O)[C@@H]1CCCN1C(=O)[C@H](CCCNC(=N)N)NC(=O)[C@H](CCCCN)NC(=O)[C@H](CCCCN)NC(=O)[C@@H]1CCCN1C(=O)[C@H](CCCCN)NC(=O)[C@H](CCCCN)NC(=O)[C@H](CC(C)C)NC(=O)[C@H](CC(C)C)NC(=O)[C@@H](NC(=O)[C@H](CCC(N)=O)NC(=O)[C@H](CCCNC(=N)N)NC(=O)[C@H](Cc1ccccc1)NC(=O)[C@H](Cc1c[nH]c2ccccc12)NC(=O)[C@H](CC(=O)O)NC(=O)[C@H](C)NC(=O)[C@H](CCSC)NC(=O)[C@H](CCCCN)NC(=O)CN)[C@@H](C)O)[C@@H](C)O)[C@@H](C)O)C(=O)N[C@H](C(=O)N[C@@H](CO)C(N)=O)C(C)C [TBX2] (H-GKMADWFRQTLLKKPKKRPNSPESTLQLRDATPGGAIVS-NH2),no significant reduction in cellular viability
cell permeable properties,cell permeable properties,CSCC[C@H](NC(=O)[C@H](CCCCN)NC(=O)CNc1ccc([N+](=O)[O-])c2nonc12)C(=O)N[C@@H](C)C(=O)N[C@@H](CC(=O)O)C(=O)N[C@@H](Cc1c[nH]c2ccccc12)C(=O)N[C@@H](Cc1ccccc1)C(=O)N[C@@H](CCCNC(=N)N)C(=O)N[C@@H](CCC(N)=O)C(=O)N[C@H](C(=O)N[C@@H](CC(C)C)C(=O)N[C@@H](CC(C)C)C(=O)N[C@@H](CCCCN)C(=O)N[C@@H](CCCCN)C(=O)N1CCC[C@H]1C(=O)N[C@@H](CCCCN)C(=O)N[C@@H](CCCCN)C(=O)N[C@@H](CCCNC(=N)N)C(=O)N1CCC[C@H]1C(=O)N[C@@H](CC(N)=O)C(=O)N[C@@H](CO)C(=O)N1CCC[C@H]1C(=O)N[C@@H](CCC(=O)O)C(=O)N[C@@H](CO)C(=O)N[C@H](C(N)=O)[C@@H](C)O)[C@@H](C)O [TIRAP] (H-[N(NBD)Gly]KMADWFRQTLLKKPKKRPNSPEST-NH2),–
